Reference: PubChem BioAssay AID248 (DTP/NCI, 2004)
Values joined by “and” are separate entries in the source; they are usually repeats but may differ in a detail not shown here. Equal values may be shown once. Toxic doses and inconclusive results are not listed. Rule as the data show it: active = T/C of 150% or more; inactive = T/C below 125%.

System: L1210 leukemia ip in BDF1 mice, survival T/C
Assay: NCI In Vivo Anticancer Drug Screen. Data for tumor model L1210 Leukemia (intraperitoneal) in B6D2F1 (BDF1) mice
Details: endpoint: mean survival time, higher = longer survival
How it was run: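 Read-out is survival time, reported as the treated-group measurement over the vehicle-control measurement.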

[1] = dose: 100.0 mg/kg/injection, schedule: Q01DX009 (ip), vehicle: saline
[2] = dose: 100.0 mg/kg/injection, schedule: Q04DX003 (ip), vehicle: saline with Tween-80
[3] = dose: 100.0 mg/kg/injection, schedule: Q04DX003 (ip), vehicle: saline
[4] = dose: 200.0 mg/kg/injection, schedule: Q01DX009 (ip), vehicle: saline
[5] = dose: 200.0 mg/kg/injection, schedule: Q04DX003 (ip), vehicle: saline with Tween-80
[6] = dose: 200.0 mg/kg/injection, schedule: Q04DX003 (ip), vehicle: saline
[7] = dose: 400.0 mg/kg/injection, schedule: Q01DX009 (ip), vehicle: saline
[8] = dose: 400.0 mg/kg/injection, schedule: Q04DX003 (ip), vehicle: saline with Tween-80
[9] = dose: 400.0 mg/kg/injection, schedule: Q04DX003 (ip), vehicle: saline
[10] = dose: 100.0 mg/kg/injection, schedule: Q01DX001 (ip), vehicle: other
[11] = dose: 200.0 mg/kg/injection, schedule: Q01DX001 (ip), vehicle: other
[12] = dose: 400.0 mg/kg/injection, schedule: Q01DX001 (ip), vehicle: other
[13] = dose: 100.0 mg/kg/injection, schedule: Q01DX009 (ip), vehicle: Klucel (hydroxypropylcellulose) (HPC)
[14] = dose: 100.0 mg/kg/injection, schedule: Q04DX003 (ip), vehicle: Klucel (hydroxypropylcellulose) (HPC)
[15] = dose: 200.0 mg/kg/injection, schedule: Q01DX009 (ip), vehicle: Klucel (hydroxypropylcellulose) (HPC)
[16] = dose: 200.0 mg/kg/injection, schedule: Q04DX003 (ip), vehicle: Klucel (hydroxypropylcellulose) (HPC)
[17] = dose: 400.0 mg/kg/injection, schedule: Q01DX009 (ip), vehicle: Klucel (hydroxypropylcellulose) (HPC)
[18] = dose: 400.0 mg/kg/injection, schedule: Q04DX003 (ip), vehicle: Klucel (hydroxypropylcellulose) (HPC)
[19] = dose: 100.0 mg/kg/injection, schedule: Q01DX001 (ip), vehicle: saline
[20] = dose: 200.0 mg/kg/injection, schedule: Q01DX001 (ip), vehicle: saline
[21] = dose: 400.0 mg/kg/injection, schedule: Q01DX001 (ip), vehicle: saline

Measured: T/C

COC(=O)C1C2CC(=O)C(C2)C1C(=O)OC (stereo not given)
inactive: [1] 96 % of control | [2] 98 % of control | [3] 100 % of control | [4] 105 % of control | [5] 86 % of control | [6] 100 % of control | [7] 99 % of control | [8] 91 % of control | [9] 96 % of control

COc1nc(=O)n(C2CCCO2)cc1Br (stereo not given)
inactive: [10] 107 % of control | [11] 96 % of control | [12] 98 % of control

O=[N+]([O-])c1ccc(CC(O)c2ccccc2Cl)cc1 (stereo not given)
inactive: [13] 102 % of control | [14] 101 % of control | [15] 102 % of control | [16] 101 % of control | [17] 97 % of control | [18] 97 % of control

CCSC1C(OC(C)=O)C(C(CSC(C)=O)OC(C)=O)OC1n1cc(C)c(=O)[nH]c1=O (stereo not given)
inactive: dose: 100.0 mg/kg/injection, schedule: Q01DX005 (ip), vehicle: saline 94 % of control | dose: 200.0 mg/kg/injection, schedule: Q01DX005 (ip), vehicle: saline 98 % of control

N=C(N[N+](=O)[O-])N(CCC(=O)O)N=O
inactive: dose: 50.0 mg/kg/injection, schedule: Q01DX001 (ip), vehicle: saline 100 % of control | dose: 50.0 mg/kg/injection, schedule: Q01DX009 (ip), vehicle: saline 90 % of control | dose: 53.0 mg/kg/injection, schedule: Q01DX015 (ip), vehicle: saline 113 % of control | dose: 79.0 mg/kg/injection, schedule: Q01DX015 (ip), vehicle: saline 124 % of control | [10] 97 % of control | [19] 107 % of control | dose: 100.0 mg/kg/injection, schedule: Q01DX009 (ip), vehicle: other 103 % of control | [1] 96 % of control | [3] 96 % of control | dose: 178.0 mg/kg/injection, schedule: Q01DX001 (ip), vehicle: saline 109 % of control and 122 % of control | dose: 178.0 mg/kg/injection, schedule: Q01DX015 (ip), vehicle: saline 116 % of control | [11] 101 % of control | [20] 113 % of control | dose: 200.0 mg/kg/injection, schedule: Q01DX009 (ip), vehicle: other 98 % of control | [4] 104 % of control | [6] 98 % of control | dose: 267.0 mg/kg/injection, schedule: Q01DX001 (ip), vehicle: saline 112 % of control and 121 % of control | [12] 100 % of control | dose: 400.0 mg/kg/injection, schedule: Q01DX009 (ip), vehicle: other 98 % of control | [7] 100 % of control | [9] 91 % of control | dose: 600.0 mg/kg/injection, schedule: Q01DX001 (ip), vehicle: other 94 % of control | dose: 800.0 mg/kg/injection, schedule: Q01DX001 (ip), vehicle: other 92 % of control | dose: 800.0 mg/kg/injection, schedule: Q01DX001 (ip), vehicle: saline 86 % of control

C=C(Br)CN(C)C
inactive: dose: 50.0 mg/kg/injection, schedule: Q01DX009 (ip), vehicle: saline with Tween-80 117 % of control | [2] 96 % of control | [5] 102 % of control

CC(=O)OCc1cccnc1
inactive: [2] 95 % of control | [5] 94 % of control | [8] 97 % of control

CCOC(CCc1c(C)nc[nH]c1=O)OCC
inactive: [1] 90 % of control | [4] 98 % of control | [7] 95 % of control

Clc1ccc(OCOc2ccc(Cl)cc2)cc1
inactive: [14] 106 % of control | [16] 98 % of control | [18] 92 % of control

CC(C)(NCCNC(C)(C)[P+](=O)O)[P+](=O)O
inactive: [14] 96 % of control | [16] 93 % of control | [18] 93 % of control

NC(=O)c1ccc([N+](=O)[O-])s1
inactive: dose: 25.0 mg/kg/injection, schedule: Q04DX003 (ip), vehicle: saline with Tween-80 98 % of control | dose: 50.0 mg/kg/injection, schedule: Q04DX003 (ip), vehicle: saline with Tween-80 104 % of control | [14] 100 % of control | [2] 96 % of control

O=C(Nc1ccccc1)NC(O)C(Cl)(Cl)Cl (stereo not given)
inactive: [14] 95 % of control | [16] 95 % of control | [18] 98 % of control

O=C(CI)OCC#CCOC(=O)CI
inactive: dose: 12.5 mg/kg/injection, schedule: Q01DX001 (ip), vehicle: carboxymethylcellulose (CMC) 98 % of control | dose: 12.5 mg/kg/injection, schedule: Q01DX009 (ip), vehicle: carboxymethylcellulose (CMC) 90 % of control and 92 % of control | dose: 12.5 mg/kg/injection, schedule: Q04DX002 (ip), vehicle: carboxymethylcellulose (CMC) 104 % of control and 110 % of control | dose: 12.5 mg/kg/injection, schedule: Q04DX003 (ip), vehicle: carboxymethylcellulose (CMC) 95 % of control | dose: 25.0 mg/kg/injection, schedule: Q01DX001 (ip), vehicle: carboxymethylcellulose (CMC) 103 % of control | dose: 25.0 mg/kg/injection, schedule: Q01DX009 (ip), vehicle: carboxymethylcellulose (CMC) 86 % of control | dose: 25.0 mg/kg/injection, schedule: Q04DX002 (ip), vehicle: carboxymethylcellulose (CMC) 98 % of control | dose: 25.0 mg/kg/injection, schedule: Q04DX003 (ip), vehicle: carboxymethylcellulose (CMC) 103 % of control | dose: 50.0 mg/kg/injection, schedule: Q01DX001 (ip), vehicle: carboxymethylcellulose (CMC) 92 % of control | dose: 50.0 mg/kg/injection, schedule: Q04DX002 (ip), vehicle: carboxymethylcellulose (CMC) 97 % of control and 103 % of control | dose: 50.0 mg/kg/injection, schedule: Q04DX003 (ip), vehicle: carboxymethylcellulose (CMC) 94 % of control

CC(=O)c1ccccc1N1CCCCC1
inactive: dose: 100.0 mg/kg/injection, schedule: Q04DX002 (ip), vehicle: saline 100 % of control | dose: 200.0 mg/kg/injection, schedule: Q04DX002 (ip), vehicle: saline 89 % of control

COc1ccc(C(C)=O)c(OC)c1
inactive: [19] 98 % of control | [1] 112 % of control | [20] 98 % of control | [4] 94 % of control | [21] 98 % of control | [7] 102 % of control

C1CC[C@@H]2NCCC[C@H]2C1
inactive: dose: 100.0 mg/kg/injection, schedule: Q01DX001 (ip), vehicle: carboxymethylcellulose (CMC) 103 % of control | dose: 200.0 mg/kg/injection, schedule: Q01DX001 (ip), vehicle: carboxymethylcellulose (CMC) 92 % of control

Cc1cc(=O)c(CCl)n[nH]1
inactive: dose: 25.0 mg/kg/injection, schedule: Q01DX009 (ip), vehicle: Klucel (hydroxypropylcellulose) (HPC) 115 % of control | dose: 25.0 mg/kg/injection, schedule: Q04DX003 (ip), vehicle: Klucel (hydroxypropylcellulose) (HPC) 120 % of control | dose: 50.0 mg/kg/injection, schedule: Q04DX003 (ip), vehicle: Klucel (hydroxypropylcellulose) (HPC) 116 % of control | [14] 97 % of control and 89 % of control

COc1c(C)cccc1[N+](=O)[O-]
inactive: [13] 104 % of control | [14] 98 % of control | [15] 101 % of control | [16] 104 % of control | [17] 101 % of control | [18] 101 % of control

CC(OC(C)c1ccccc1)c1ccccc1 (stereo not given)
inactive: [13] 96 % of control | [15] 105 % of control | [17] 101 % of control

Nc1ccnc(C(F)(F)F)n1
inactive: dose: 50.0 mg/kg/injection, schedule: Q01DX Z (ip), vehicle: methylcellulose (MC) 93 % of control | dose: 100.0 mg/kg/injection, schedule: Q01DX Z (ip), vehicle: methylcellulose (MC) 90 % of control

Cn1cc(/C=C\[N+](=O)[O-])c2ccccc21
inactive: [19] 98 % of control | [20] 98 % of control | [21] 98 % of control

Cc1cc(NC(C)C)c(C)cc1NC(C)C
inactive: dose: 12.5 mg/kg/injection, schedule: Q04DX002 (ip), vehicle: Klucel (hydroxypropylcellulose) (HPC) 93 % of control | dose: 25.0 mg/kg/injection, schedule: Q04DX002 (ip), vehicle: Klucel (hydroxypropylcellulose) (HPC) 96 % of control

CSc1ccc(OC(=O)Nc2ccccc2C)cc1C
inactive: dose: 100.0 mg/kg/injection, schedule: Q04DX002 (ip), vehicle: saline with Tween-80 100 % of control | dose: 200.0 mg/kg/injection, schedule: Q04DX002 (ip), vehicle: saline with Tween-80 100 % of control | dose: 400.0 mg/kg/injection, schedule: Q04DX002 (ip), vehicle: saline with Tween-80 118 % of control
